Data: US20090054493A1, “THIAZOLE DERIVATIVES AS PPAR DELTA LIGANDS AND THEIR MANUFACTURING PROCESS” (priority 2005, published 2009)

What was measured:
Assay type in all cases: cell-based
[1] = molecular target: T1, PPARα (Homo sapiens, UniProt Q07869); test: Transfection assay (luciferase reporter) in CV-1 cells, PPARα; settings: full-length PPAR plasmid, luciferase normalized with β-galactosidase
T1 construct: full-length PPARs plasmid DNA; expressed in transfected cells; host or cells: CV-1 cells
T1 sequence (Q07869 1-468): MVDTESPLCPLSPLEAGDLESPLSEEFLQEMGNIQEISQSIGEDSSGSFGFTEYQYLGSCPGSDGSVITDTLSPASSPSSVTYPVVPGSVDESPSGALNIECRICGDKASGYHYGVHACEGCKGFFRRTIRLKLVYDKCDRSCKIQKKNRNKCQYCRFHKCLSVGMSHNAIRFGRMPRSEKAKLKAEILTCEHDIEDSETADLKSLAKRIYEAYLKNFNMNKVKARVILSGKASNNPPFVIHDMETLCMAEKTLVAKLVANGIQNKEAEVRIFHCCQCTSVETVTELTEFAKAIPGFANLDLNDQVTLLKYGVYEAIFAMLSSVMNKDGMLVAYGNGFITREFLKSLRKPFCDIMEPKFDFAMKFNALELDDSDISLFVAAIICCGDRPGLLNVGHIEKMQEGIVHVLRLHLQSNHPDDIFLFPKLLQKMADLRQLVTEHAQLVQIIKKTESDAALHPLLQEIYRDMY
Protocol: (§1) The compounds prepared in Examples were tested for PPARδ activity by a transfection assay. In addition, the compounds were tested for selectivity for PPARα and PPARγ, the subtypes of PPARs, and also tested for toxicity by a MTT assay.
(§2) A transfection assay was performed using CV-1 cells. The culture of the cells was performed using a DMEM medium (10% FBS, DBS (delipidated) and 1% penicillin/streptomycin) on a 96-well plate in a 5% carbon dioxide-containing incubator at 37° C. The test was performed in four steps consisting of cell inoculation, transfection, treatment of the compounds, and analysis of results. Specifically, CV-1 cells were inoculated onto a 96-well plate at a concentration of 5,000 cells/well, and after 24 hours, the cells were transfected. In the cell transfection, full-length PPARs plasmid DNA, reporter DNA that has luciferase activity and thus allows the identification of PPARs, and β-galactosidase DNA that provides the information of transfection efficiency, were used as transfection reagents. Each of the compounds developed in the present invention was dissolved in dimethylsulfoxide (DMSO) and transfected into the cells at various concentrations using media. The cells were cultured in an incubator for 24 and then lysed with lysis buffer. The lysed cells were measured for luciferase and β-galactosidase activities using a luminometer and a microplate reader. The measured luciferase values were normalized with the β-galactosidase values and graphed. From the graph, EC50 values were determined.

[2] = molecular target: T2, PPARγ (Homo sapiens, UniProt P37231); test: Transfection assay (luciferase reporter) in CV-1 cells, PPARγ; settings: full-length PPAR plasmid, luciferase normalized with β-galactosidase
T2 construct: full-length PPARs plasmid DNA; expressed in transfected cells; host or cells: CV-1 cells
T2 sequence (P37231 1-505): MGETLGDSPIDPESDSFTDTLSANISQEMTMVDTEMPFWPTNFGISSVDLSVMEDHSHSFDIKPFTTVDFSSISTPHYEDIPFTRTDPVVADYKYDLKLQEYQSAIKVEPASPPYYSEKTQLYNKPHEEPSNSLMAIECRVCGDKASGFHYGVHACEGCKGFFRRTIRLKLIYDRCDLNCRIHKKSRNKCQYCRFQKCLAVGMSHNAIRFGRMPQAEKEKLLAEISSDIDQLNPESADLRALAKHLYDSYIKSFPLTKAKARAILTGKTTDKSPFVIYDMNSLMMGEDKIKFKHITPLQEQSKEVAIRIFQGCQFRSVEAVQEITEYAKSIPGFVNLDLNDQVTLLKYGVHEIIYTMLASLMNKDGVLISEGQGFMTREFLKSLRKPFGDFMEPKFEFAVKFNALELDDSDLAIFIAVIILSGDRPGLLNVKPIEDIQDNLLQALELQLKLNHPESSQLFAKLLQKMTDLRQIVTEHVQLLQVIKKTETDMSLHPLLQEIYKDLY
Protocol: as §1
as §2, with “The test was performed in four steps consisting of cell inoculation, transfection, treatment of the compounds, and analysis of results.” left out

[3] = MTT assay, cytotoxicity; settings: African green monkey, CV-1 cells, read-out: LC50 Cytotoxicity
Protocol: The compounds of Examples 47-97 according to the present invention were tested for cytotoxicity using a MTT assay. MTT is a water-soluble yellow substance, but if it is introduced into living cells, it will be degenerated into a water-insoluble purple crystal due to dehydrogenase contained in mitochondria. If this substance is dissolved in dimethylsulfoxide and then measured for absorbance at 550 nm, cytotoxicity can be assayed. The test method is as follows.
CV-1 cells were first inoculated onto a 96-well plate at a concentration of 5,000 cells/well. The inoculated cells were cultured in a 5% carbon dioxide-containing humidified incubator at 37° C. for 24 hours, and then treated with the inventive compounds at various concentrations. After 24 hours of culture, a MTT reagent was added to the cultured cells. After 15 minutes of culture, the resulting purple crystal was dissolved in dimethylsulfoxide and then measured for absorbance using a microplate reader. From the measured absorbance, cytotoxicity was assayed.

[4] = molecular target: T3, PPARδ (Homo sapiens, UniProt Q03181); test: Transfection assay (luciferase reporter) in CV-1 cells, PPARδ; set-up: full-length PPARs plasmid DNA; expressed in transfected cells; host or cells: CV-1 cells; settings: full-length PPAR plasmid, luciferase normalized with β-galactosidase
T3 sequence (Q03181 1-441): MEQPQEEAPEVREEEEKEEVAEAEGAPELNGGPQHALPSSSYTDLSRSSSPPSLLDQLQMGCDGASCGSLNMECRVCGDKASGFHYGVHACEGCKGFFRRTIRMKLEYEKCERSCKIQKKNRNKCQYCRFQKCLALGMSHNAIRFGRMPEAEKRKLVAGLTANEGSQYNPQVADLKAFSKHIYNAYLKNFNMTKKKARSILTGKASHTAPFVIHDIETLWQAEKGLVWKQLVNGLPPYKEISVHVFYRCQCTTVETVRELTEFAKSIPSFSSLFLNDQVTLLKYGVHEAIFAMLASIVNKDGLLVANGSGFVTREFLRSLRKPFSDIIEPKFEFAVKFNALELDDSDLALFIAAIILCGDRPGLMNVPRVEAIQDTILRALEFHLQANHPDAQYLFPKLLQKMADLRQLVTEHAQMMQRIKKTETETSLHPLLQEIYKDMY
Protocol: as §1
as §2, with “The test was performed in four steps consisting of cell inoculation, transfection, treatment of the compounds, and analysis of results.” left out

Structure (SMILES) | EC50 PPARα [1] | EC50 PPARγ [2] | CC50 at 24 h [3] [µM] | EC50 [4] [µM]
CCOC(=O)COc1ccc(SC(Cc2c(F)cccc2Cl)c2sc(-c3ccc(C(F)(F)F)cc3)nc2C)cc1C (centres unmarked) [Example 47] | ia | ia | > 100 | 0.0065
Cc1cc(SC(CCc2ccccc2)c2sc(-c3ccc(C(F)(F)F)cc3)nc2C)ccc1OCC(=O)O (centres unmarked) [Example 68, 2-[4-[1-[2-[4-(trifluoromethyl)phenyl]-4-methylthiazol-5-yl]-3-phenylpropylthio]-2-methylphenoxy]acetic acid] | ia | ia | > 100 | 0.0027
Cc1cc(SC(CCCc2ccccc2)c2sc(-c3ccc(C(F)(F)F)cc3)nc2C)ccc1OCC(=O)O (centres unmarked) [Example 70, 2-[4-[1-[2-[4-(trifluoromethyl)phenyl]-4-methylthiazol-5-yl]-4-phenylbutylthio]-2-methylphenoxy]acetic acid] | ia | ia | 91 | 0.0061
Cc1cc(SC(CCCCc2ccccc2)c2sc(-c3ccc(C(F)(F)F)cc3)nc2C)ccc1OCC(=O)O (centres unmarked) [Example 71, 2-[4-[1-[2-[4-(trifluoromethyl)phenyl]-4-methylthiazol-5-yl]-5-phenylpentylthio]-2-methylphenoxy]acetic acid] | ia | ia | 93 | 0.0388
Cc1cc(SC(CCCCCc2ccccc2)c2sc(-c3ccc(C(F)(F)F)cc3)nc2C)ccc1OCC(=O)O (centres unmarked) [Example 72, 2-[4-[1-[2-[4-(trifluoromethyl)phenyl]-4-methylthiazol-5-yl]-6-phenylhexylthio]-2-methylphenoxy]acetic acid] | ia | ia | 92 | 0.0115
Cc1cc(SC(CCCCCCCc2ccccc2)c2sc(-c3ccc(C(F)(F)F)cc3)nc2C)ccc1OCC(=O)O (centres unmarked) [Example 73, 2-[4-[1-[2-[4-(trifluoromethyl)phenyl]-4-methylthiazol-5-yl]-8-phenyloctylthio]-2-methylphenoxy]acetic acid] | ia | ia | 94 | 0.0572
Cc1cc(SC(CCCCCCCCCCc2ccccc2)c2sc(-c3ccc(C(F)(F)F)cc3)nc2C)ccc1OCC(=O)O (centres unmarked) [Example 74, 2-[4-[1-[2-[4-(trifluoromethyl)phenyl]-4-methylthiazol-5-yl]-11-phenylundecylthio]-2-methylphenoxy]acetic acid] | ia | ia | > 100 | 0.132
Cc1cc(SC(Cc2c(F)cccc2Cl)c2sc(-c3ccc(C(F)(F)F)cc3)nc2C)ccc1OCC(=O)O (centres unmarked) [Example 75, 2-[4-[2-(2-chloro-6-fluorophenyl)-1-[2-[4-(trifluoromethyl)phenyl]-4-methylthiazol-5-yl]ethylthio]-2-methylphenoxy]acetic acid] | ia | ia | > 100 | 0.0021
Cc1cc(SC(Cc2ccc(C#N)cc2)c2sc(-c3ccc(C(F)(F)F)cc3)nc2C)ccc1OCC(=O)O (centres unmarked) [Example 76, 2-[4-[2-(4-cyanophenyl)-1-[2-[4-(trifluoromethyl)phenyl]-4-methylthiazol-5-yl]ethylthio]-2-methylphenoxy]acetic acid] | ia | ia | > 100 | 0.0221
Cc1cc(SC(Cc2ccc(C(F)(F)F)cc2)c2sc(-c3ccc(C(F)(F)F)cc3)nc2C)ccc1OCC(=O)O (centres unmarked) [Example 78, 2-[4-[2-[4-(trifluoromethyl)phenyl]-1-[2-[4-(trifluoromethyl)phenyl]-4-methylthiazol-5-yl]ethylthio]-2-methylphenoxy]acetic acid] | ia | ia | > 100 | 0.0133
COc1cc(CC(Sc2ccc(OCC(=O)O)c(C)c2)c2sc(-c3ccc(C(F)(F)F)cc3)nc2C)cc(OC)c1 (centres unmarked) [Example 79, 2-[4-[1-[2-[4-(trifluoromethyl)phenyl]-4-methylthiazol-5-yl]-2-(3,5-dimethoxyphenyl)ethylthio]-2-methylphenoxy]acetic acid] | ia | ia | > 100 | 0.0464
Cc1cc(SC(Cc2c(F)c(F)c(F)c(F)c2F)c2sc(-c3ccc(C(F)(F)F)cc3)nc2C)ccc1OCC(=O)O (centres unmarked) [Example 80, 2-[4-[1-[2-[4-(trifluoromethyl)phenyl]-4-methylthiazol-5-yl]-2-(perfluorophenyl)ethylthio]-2-methylphenoxy]acetic acid] | ia | – | > 100 | 0.0464
Cc1cc(SC(Cc2ccc(Br)cc2)c2sc(-c3ccc(C(F)(F)F)cc3)nc2C)ccc1OCC(=O)O (centres unmarked) [Example 81, 2-[4-[2-(4-bromophenyl)-1-[2-[4-(trifluoromethyl)phenyl]-4-methylthiazol-5-yl]ethylthio]-2-methylphenoxy]acetic acid] | – | ia | 92 | 0.0115
Cc1cc(SC(Cc2c(F)cccc2C(F)(F)F)c2sc(-c3ccc(C(F)(F)F)cc3)nc2C)ccc1OCC(=O)O (centres unmarked) [Example 82, 2-[4-[2-[2-fluoro-6-(trifluoromethyl)phenyl]-1-[2-[4-(trifluoromethyl)phenyl]-4-methylthiazol-5-yl]ethylthio]-2-methylphenoxy]acetic acid] | ia | – | > 100 | 0.0026
